Results on 27 compounds are retold here after patent US10173991B2, “Sulfone amide linked benzothiazole inhibitors of endothelial lipase” (BRISTOL-MYERS SQUIBB COMPANY, priority 2014, dated 2019).

Read-outs that look alike come from different tables or passages of the source. Where only a bound is given, the exact number is not on record here.

This assay has as its target Endothelial lipase (EL) (Homo sapiens (Human), UniProt Q9Y5X9). Put plainly: Endothelial lipase (EL) enzymatic assay with fluorescent substrate A10070 in DMPG vesicles. The class given is biochemical. In a few lines:
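Vesicles prepared: A10070 dried with DMPG, resuspended in HEPES pH 8.0/NaCl/EDTA, sonicated on ice. Enzyme incubated with compound 30 min at 37° C. Reaction started with 1:10 diluted vesicles. Fluorescence (490/530 nm) followed 60 min; slope from 300–900 secs gives rate.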

The mark [1] stands for this setting: EL from conditioned media of HT-1080 cells, 30 min preincubation at 37° C.

Endothelial lipase (EL), sequence (Q9Y5X9 21-500): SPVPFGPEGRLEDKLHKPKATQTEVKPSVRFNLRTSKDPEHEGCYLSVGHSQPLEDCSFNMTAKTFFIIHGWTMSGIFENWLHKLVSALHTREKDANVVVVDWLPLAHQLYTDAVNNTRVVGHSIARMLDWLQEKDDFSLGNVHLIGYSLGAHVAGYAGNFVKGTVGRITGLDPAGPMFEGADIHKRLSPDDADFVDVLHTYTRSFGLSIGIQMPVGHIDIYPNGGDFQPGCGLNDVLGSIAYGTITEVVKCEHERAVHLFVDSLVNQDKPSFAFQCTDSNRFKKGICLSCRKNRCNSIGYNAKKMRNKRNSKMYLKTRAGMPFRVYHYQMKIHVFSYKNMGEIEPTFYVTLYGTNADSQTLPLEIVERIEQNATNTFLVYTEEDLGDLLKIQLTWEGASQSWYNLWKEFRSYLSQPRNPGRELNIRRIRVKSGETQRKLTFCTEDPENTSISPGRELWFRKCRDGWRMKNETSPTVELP

Usually IC50 stands for the concentration needed to halve the response being measured. Low readings indicate inhibition by little substance, high ones a need for much substance. In turn, `O=C(CNC(=O)C(c1nc2cc(F)c(-c3cnc(-n4cccn4)nc3)cc2s1)S(=O)(=O)CCC(F)(F)F)NC1CC1` (stereo not drawn) [Example 584, N-[(cyclopropyl-carbamoyl)methyl]-2-{5-fluoro-6-[2-(1H-pyrazol-1-yl)pyrimidin-5-yl]-1,3-benzothiazol-2-yl}-2-(3,3,3-trifluoropropane-sulfonyl)acetamide] returned an IC50 of 64 nM.
As to `COCCS(=O)(=O)C(C(=O)NCC(=O)NC1CC1)c1nc2cc(F)c(-c3ccc(-n4ncc(C#N)c4N)cc3)cc2s1` (stereo not drawn) [Example 585, 2-{6-[4-(5-amino-4-cyano-1H-pyrazol-1-yl)phenyl]-5-fluoro-1,3-benzothiazol-2-yl}-N-[(cyclopropyl-carbamoyl)methyl]-2-(2-methoxyethane-sulfonyl)acetamide], half-maximal inhibition (IC50) required 1 nM. Compared with the last compound, the IC50 is about 64-fold lower.
Regarding `COCCS(=O)(=O)C(C(=O)NCC(=O)NC1CC1)c1nc2cc(F)c(-c3ccc(-n4ncc(C(N)=O)c4N)cc3)cc2s1` (stereo not drawn) [Example 586, 5-amino-1-{4-[2-({[(cyclopropyl-carbamoyl)methyl]carbamoyl}(2-methoxyethane-sulfonyl)methyl)-5-fluoro-1,3-benzothiazol-6-yl]phenyl}-1H-pyrazole-4-carboxamide], the midpoint of inhibition, the IC50, lay at 1 nM.
With `Cc1nn(-c2ccc(-c3cc4sc(C(C(=O)NCC(=O)NC5CC5)S(=O)(=O)CCC(F)(F)F)nc4cc3F)cc2)c(N)c1C#N` (stereo not drawn) [Example 587, 2-{6-[4-(5-amino-4-cyano-3-methyl-1H-pyrazol-1-yl)phenyl]-5-fluoro-1,3-benzothiazol-2-yl}-N-[(cyclopropyl-carbamoyl)methyl]-2-(3,3,3-trifluoropropane-sulfonyl)acetamide], the midpoint of inhibition, the IC50, lay at 3 nM.
Still for that read-out and setting: next, `O=C(CNC(=O)C(c1nc2cc(F)c(-c3ccc(-n4nc(C(F)(F)F)cc4C(=O)O)cc3)cc2s1)S(=O)(=O)CCC(F)(F)F)NC1CC1` (stereo not drawn) [Example 588, 1-{4-[2-({[(cyclopropyl-carbamoyl)methyl]carbamoyl}(3,3,3-trifluoropropane-sulfonyl)methyl)-5-fluoro-1,3-benzothiazol-6-yl]phenyl}-3-(trifluoromethyl)-1H-pyrazole-5-carboxylic acid]: 6 nM; `O=C(CNC(=O)C(c1nc2cc(F)c(-c3ccc4c(c3)CCCN4C(=O)Cc3c(F)cccc3F)cc2s1)S(=O)(=O)CCC(F)(F)F)NC1CC1` (stereo not drawn) [Example 590, N-[(cyclopropyl-carbamoyl)methyl]-2-(6-{1-[2-(2,6-difluorophenyl)acetyl]-1,2,3,4-tetrahydroquinolin-6-yl}-5-fluoro-1,3-benzothiazol-2-yl)-2-(3,3,3-trifluoropropane-sulfonyl)acetamide]: 8 nM.
For the compound `O=C(CNC(=O)C(c1nc2cc(F)c(-c3cccn(Cc4ccccc4)c3=O)cc2s1)S(=O)(=O)CCC(F)(F)F)NC1CC1` (stereo not drawn) [Example 591, 2-[6-(1-Benzyl-2-oxo-1,2-dihydropyridin-3-yl)-5-fluoro-1,3-benzothiazol-2-yl]-N-[(cyclopropylcarbamoyl)methyl]-2-(3,3,3-trifluoropropanesulfonyl)acetamide], under setting [1], half-maximal inhibition (IC50) was put at 268 nM.
`O=C(CNC(=O)C(c1nc2cc(F)c(-c3ccc(=O)n(Cc4ccccc4)c3)cc2s1)S(=O)(=O)CCC(F)(F)F)NC1CC1` (stereo not drawn) [Example 592, 2-[6-(1-benzyl-6-oxo-1,6-dihydropyridin-3-yl)-5-fluoro-1,3-benzothiazol-2-yl]-N-[(cyclopropyl-carbamoyl)methyl]-2-(3,3,3-trifluoropropane-sulfonyl)acetamide] had an IC50 of 5 nM.
On the same count and under the same terms, next, `COCCS(=O)(=O)C(C(=O)NCC(=O)NC1CC1)c1nc2cc(F)c(-c3ccc(-c4nnn(C)n4)cc3)cc2s1` (stereo not drawn) [Example 593, N-[(cyclopropyl-carbamoyl)methyl]-2-{5-fluoro-6-[4-(2-methyl-2H-1,2,3,4-tetrazol-5-yl)phenyl]-1,3-benzothiazol-2-yl}-2-(2-methoxyethane-sulfonyl)acetamide]: 9 nM; `COCCS(=O)(=O)C(C(=O)NCC(=O)NC1CC1)c1nc2cc(F)c(-c3ccc(-c4nnnn4C)cc3)cc2s1` (stereo not drawn) [Example 594, N-[(cyclopropyl-carbamoyl)methyl]-2-{5-fluoro-6-[4-(1-methyl-1H-1,2,3,4-tetrazol-5-yl)phenyl]-1,3-benzothiazol-2-yl}-2-(2-methoxyethane-sulfonyl)acetamide]: 67 nM.
In turn, `COCCNC(=O)CNC(=O)C(c1nc2ccc(-c3ccc4c(c3)CN(C3CC3)C4=O)cc2s1)S(=O)(=O)c1ccc(F)cc1` (stereo not drawn) [Example 595, 2-(6-(2-Cyclopropyl-1-oxoisoindolin-5-yl)benzo[d]thiazol-2-yl)-2-((4-fluorophenyl)sulfonyl)-N-(2-((2-methoxyethyl)amino)-2-oxoethyl)] displayed an IC50 under setting [1] of 24 nM. That is a double-digit nanomolar value.
`O=C(CNC(=O)C(c1nc2ccc(-c3ccc4c(c3)CN(C3CC3)C4=O)cc2s1)S(=O)(=O)c1ccc(F)cc1)NC1CC1` (stereo not drawn) [Example 597, 2-[6-(2-cyclopropyl-1-oxo-2,3-dihydro-1H-isoindol-5-yl)-1,3-benzothiazol-2-yl]-N-[(cyclopropyl-carbamoyl)methyl]-2-(4-fluorobenzene-sulfonyl)acetamide]: the IC50 turned out to be 7 nM.
Under setting [1], `COCCS(=O)(=O)C(C(=O)NCC(=O)NC1CC1)c1nc2ccc(-c3ccnc(O)c3F)cc2s1` (stereo not drawn) [Example 598, N-(2-(Cyclopropylamino)-2-oxoethyl)-2-(6-(3-fluoro-2-hydroxypyridin-4-yl)benzo[d]thiazol-2-yl)-2-((2-methoxyethyl)sulfonyl)acetamide] returned an IC50 of 101 nM. That is a sub-micromolar value.
`O=C(CNC(=O)C(c1nc2ccc(-c3ccnc(O)c3)cc2s1)S(=O)(=O)c1ccc(F)cc1)NC1CC1` (stereo not drawn) [Example 599, N-[(cyclopropyl-carbamoyl)methyl]-2-(4-fluorobenzene-sulfonyl)-2-[6-(2-hydroxypyridin-4-yl)-1,3-benzothiazol-2-yl]acetamide] returned an IC50 of 27 nM.
The compound `COCCS(=O)(=O)C(C(=O)NCC(=O)NC1CC1)c1nc2ccc(-c3ccnc(O)c3)cc2s1` (stereo not drawn) [Example 600, N-[(cyclopropyl-carbamoyl)methyl]-2-[6-(2-hydroxypyridin-4-yl)-1,3-benzothiazol-2-yl]-2-(2-methoxyethane-sulfonyl)acetamide] registered an IC50 of 14 nM.
In turn, `Cc1ncc(-c2cc3sc(C(C(=O)NCC(=O)NC4CC4)S(C)(=O)=O)nc3cc2OC(F)F)cn1` (stereo not drawn) [Example 601, N-[(Cyclopropylcarbamoyl)methyl]-2-[5-(difluoromethoxy)-6-(2-methylpyrimidin-5-yl)-1,3-benzothiazol-2-yl]-2-methanesulfonylacetamide] registered an IC50 under setting [1] of 19 nM.
`CS(=O)(=O)C(C(=O)NCC(=O)NC1CC1)c1nc2cc(OC(F)F)c(-c3ccc(F)nc3)cc2s1` (stereo not drawn) [Example 602, N-[(cyclopropyl-carbamoyl)methyl]-2-[5-(difluoromethoxy)-6-(6-fluoropyridin-3-yl)-1,3-benzothiazol-2-yl]-2-methanesulfonyl-acetamide] returned an IC50 of 18 nM.
On the same count and under the same terms, next, `Cc1cc(-c2cc3sc(C(C(=O)NCC(=O)NC4CC4)S(C)(=O)=O)nc3cc2OC(F)F)cnn1` (stereo not drawn) [Example 604, N-[(cyclopropyl-carbamoyl)methyl]-2-[5-(difluoromethoxy)-6-(6-methylpyridazin-4-yl)-1,3-benzothiazol-2-yl]-2-methanesulfonyl-acetamide]: 27 nM; `CS(=O)(=O)C(C(=O)NCC(=O)NC1CC1)c1nc2cc(OC(F)F)c(-c3cccc(-n4cccn4)c3)cc2s1` (stereo not drawn) [Example 605, N-[(cyclopropyl-carbamoyl)methyl]-2-[5-(difluoromethoxy)-6-[3-(1H-pyrazol-1-yl)phenyl]-1,3-benzothiazol-2-yl]-2-methanesulfonyl-acetamide]: 3 nM.
Take `CC(C)n1cc(-c2cc3sc(C(C(=O)NCC(=O)NC4CC4)S(C)(=O)=O)nc3cc2OC(F)F)ccc1=O` (stereo not drawn) [Example 606]: it took 4 nM to reach half-maximal inhibition (IC50).
With `COC(=O)Nc1ccc(-c2cc3sc(C(C(=O)NCC(=O)NC4CC4)S(C)(=O)=O)nc3cc2OC(F)F)cc1` (stereo not drawn) [Example 607, methyl N-{4-[2-({[(cyclopropyl-carbamoyl)methyl]carbamoyl} (methanesulfonyl)methyl)-5-(difluoromethoxy)-1,3-benzothiazol-6-yl]phenyl} carbamate], the midpoint of inhibition, the IC50, lay at 5 nM.
Regarding `CS(=O)(=O)C(C(=O)NCC(=O)NC1CC1)c1nc2ccc(-c3ccccc3)cc2s1` (stereo not drawn) [Example 608, N-[(cyclopropyl-carbamoyl)methyl]-2-methanesulfonyl-2-(6-phenyl-1,3-benzothiazol-2-yl)acetamide], the IC50 came to 152 nM. This IC50 lies about 30-fold higher than the previous one.
Still for that read-out and setting: next, `CS(=O)(=O)C(C(=O)NCC(=O)NC1CC1)c1nc2cc(F)c(-c3ccccc3)cc2s1` (stereo not drawn) [Example 609, N-[(cyclopropyl-carbamoyl)methyl]-2-(5-fluoro-6-phenyl-1,3-benzothiazol-2-yl)-2-methanesulfonyl-acetamide]: 2 nM; `CS(=O)(=O)C(C(=O)NCC(=O)NC1CC1)c1nc2cc(-c3ccccc3)ccc2s1` (stereo not drawn) [Example 610, N-[(cyclopropyl-carbamoyl)methyl]-2-methanesulfonyl-2-(5-phenyl-1,3-benzothiazol-2-yl)acetamide]: 40 nM; `COCCS(=O)(=O)C(C(=O)NCC(=O)NC1CC1)c1nc2cc(-c3ccccc3)c(F)cc2s1` (stereo not drawn) [Example 612, N-[(cyclopropyl-carbamoyl)methyl]-2-(6-fluoro-5-phenyl-1,3-benzothiazol-2-yl)-2-(2-methoxyethane-sulfonyl)acetamide]: 3 nM.
For `CC(C)c1cc(CNC(=O)C(C)(C)c2nc3ccc(-c4ccccc4)cc3s2)on1` [Reference 2, N-((3-Isopropylisoxazol-5-yl)methyl)-2-methyl-2-(6-phenylbenzo[d]thiazol-2-yl)propanamide, reference compound], the IC50 (reference compounds, EL from conditioned media of HT-1080 cells, 30 min preincubation at 37° C.) is > 62000 nM.
“propan-2-yl N-{4- [2-({[(cyclopropyl- carbamoyl)methyl] carbamoyl}(2- methoxyethane- sulfonyl)methyl)- 5-fluoro-1,3- benzothiazol- 6-yl]phenyl} carbamate [Example 540]” showed an IC50 of 2 nM. That is a single-digit nanomolar value.
